For assay [1], the system named is H1975 (KRAS wild type human lung adenocarcinoma cell line). Briefly: KRAS 3D-Cell Proliferation Assay, H1975 (Example 503). The class given is cell-based. Conditions: Homo sapiens, NCI-H1975, 168 h, H1975 3D culture, 7 days, CellTiter-Glo 3D; read-out: Prolif H1975 3D ATP IC50. An outline of the steps:
(§1)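 3D culture, ultra-low attachment wells; RPMI-1640/10% FBS/2 mM L-glutamine. Overnight settle, then compound series, 0.3% DMSO final, 7 d, 37° C, 5% CO2. Readout: CellTiter-Glo 3D luminescence. % inhibition vs DMSO (0%) and 1 μM staurosporine (100%); IC50 via 4-parameter Hill.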

Assay [2] concerns HPAC (homozygous mutant KRAS G12D human pancreatic cell line). The experiment in a line: KRAS 3D-Cell Proliferation Assay, HPAC (Example 503). The class given is cell-based. As to conditions: Homo sapiens, HPAC, 168 h, HPAC 3D culture, 7 days, CellTiter-Glo 3D; read-out: Prolif HPAC 3D ATP IC50. An outline of the steps:
as §1

Each structure is given as a SMILES string.

With `C[C@@H]1Oc2nc(-c3cccc4sc(N)nc34)c(F)c3nc(OC[C@@]45CCCN4C[C@H](F)C5)nc(c23)N2C[C@H]3CC[C@H](N3)[C@@H]12` [Compound 116, 4-((5S,5aS,6S,9R)-1-fluoro-12-(((2R,7aS)-2-fluorotetrahydro-1H-pyrrolizin-7a(5H)-yl)methoxy)-5-methyl-5a,6,7,8,9,10-hexahydro-5H-4-oxa-3,10a,11,13,14-pentaaza-6,9-methanonaphtho[1,8-ab]heptalen-2-yl)benzo[d]thiazol-2-amine], the 50% inhibitory concentration (IC50) in assay [1] was determined as 20000 nM; in assay [2] it was 513 nM.
Consider `C[C@@H]1Oc2nc(-c3cc(N)ccc3C(C)(C)C)c(F)c3nc(OC[C@@]45CCCN4C[C@H](F)C5)nc(c23)N2C[C@H]3CC[C@H](N3)[C@@H]12` [Compound 117, 4-(tert-butyl)-3-((5S,5aS,6S,9R)-1-fluoro-12-(((2R,7aS)-2-fluorotetrahydro-1H-pyrrolizin-7a(5H)-yl)methoxy)-5-methyl-5a,6,7,8,9,10-hexahydro-5H-4-oxa-3,10a,11,13,14-pentaaza-6,9-methanonaphtho[1,8-ab]heptalen-2-yl)aniline], for which the concentration for half-maximal inhibition (IC50) in assay [1] worked out at 4740 nM; in assay [2], 148 nM.
`Cc1c(F)c(N)cc(-c2nc3c4c(nc(OC[C@@H]5CCC6C=C(F)CCN65)nc4c2F)N2C[C@H]4CC[C@H](N4)[C@H]2[C@H](C)O3)c1C(F)(F)F` (stereo partly drawn) [Compound 120, 2-fluoro-5-((5S,5aS,6S,9R)-1-fluoro-12-(((3S)-7-fluoro-1,2,3,5,6,8a-hexahydroindolizin-3-yl)methoxy)-5-methyl-5a,6,7,8,9,10-hexahydro-5H-4-oxa-3,10a,11,13,14-pentaaza-6,9-methanonaphtho[1,8-ab]heptalen-2-yl)-3-methyl-4-(trifluoromethyl)aniline]: the values for the IC50 in assay [1] and in assay [2] were 1530 nM and 10.6 nM, respectively.
With `Cc1c(F)c(N)cc(-c2nc3c4c(nc(OC[C@@]56CCC(C)N5C[C@H](F)C6)nc4c2F)N2C[C@H]4CC[C@H](N4)[C@H]2[C@H](C)O3)c1C(F)(F)F` (stereo partly drawn) [Compound 122, 2-fluoro-5-((5S,5aS,6S,9R)-1-fluoro-12-(((2R,7aS)-2-fluoro-5-methyltetrahydro-1H-pyrrolizin-7a(5H)-yl)methoxy)-5-methyl-5a,6,7,8,9,10-hexahydro-5H-4-oxa-3,10a,11,13,14-pentaaza-6,9-methanonaphtho[1,8-ab]heptalen-2-yl)-3-methyl-4-(trifluoromethyl)aniline], the 50% inhibitory concentration (IC50) in assay [1] was found to be 487 nM; in assay [2], 1.84 nM.
Turning to `Cc1c(F)c(N)cc(-c2nc3c4c(nc(OCC5CN(CC(F)F)C5)nc4c2F)N2C[C@H]4CC[C@H](N4)[C@H]2[C@H](C)O3)c1C(F)(F)F` [Compound 128, 5-((5S,5aS,6S,9R)-12-((1-(2,2-Difluoroethyl)azetidin-3-yl)methoxy)-1-fluoro-5-methyl-5a,6,7,8,9,10-hexahydro-5H-4-oxa-3,10a,11,13,14-pentaaza-6,9-methanonaphtho[1,8-ab]heptalen-2-yl)-2-fluoro-3-methyl-4-(trifluoromethyl)aniline], the values for the half-maximal inhibitory concentration (IC50) in assay [1] and in assay [2] were 5060 nM and 51.5 nM, respectively.
Turning to `Cc1c(F)c(N)cc(-c2nc3c4c(nc(OCC56COC(CN5C)C6)nc4c2F)N2C[C@H]4CC[C@H](N4)[C@H]2[C@H](C)O3)c1C(F)(F)F` [Compound 132, 2-Fluoro-5-((5S,5aS,6S,9R)-1-fluoro-5-methyl-12-((5-methyl-2-oxa-5-azabicyclo[2.2.1]heptan-4-yl)methoxy)-5a,6,7,8,9,10-hexahydro-5H-4-oxa-3,10a,11,13,14-pentaaza-6,9-methanonaphtho[1,8-ab]heptalen-2-yl)-3-methyl-4-(trifluoromethyl)aniline], the figures for the IC50 in assay [1] and in assay [2] were 14200 nM and 70.4 nM, respectively.
Take `Cc1c(F)c(N)cc(-c2nc3c4c(nc(OC[C@@H]5CO[C@H]6CC[N@]5C6)nc4c2F)N2C[C@H]4CC[C@H](N4)[C@H]2[C@H](C)O3)c1C(F)(F)F` [Compound 135, 5-((5S,5aS,6S,9R)-12-(((1R,2S,5S)-4-Oxa-1-azabicyclo[3.2.1]octan-2-yl)methoxy)-1-fluoro-5-methyl-5a,6,7,8,9,10-hexahydro-5H-4-oxa-3,10a,11,13,14-pentaaza-6,9-methanonaphtho[1,8-ab]heptalen-2-yl)-2-fluoro-3-methyl-4-(trifluoromethyl)aniline]: the IC50 stood at 20000 nM in assay [1] and 95.6 nM in assay [2].
For the compound `Cc1c(F)c(N)cc(-c2nc3c4c(nc(OCCCN5CCOCC5)nc4c2F)N2C[C@H]4CC[C@H](N4)[C@H]2[C@H](C)O3)c1C(F)(F)F` [Compound 138, 2-Fluoro-5-((5S,5aS,6S,9R)-1-fluoro-5-methyl-12-(3-morpholinopropoxy)-5a,6,7,8,9,10-hexahydro-5H-4-oxa-3,10a,11,13,14-pentaaza-6,9-methanonaphtho[1,8-ab]heptalen-2-yl)-3-methyl-4-(trifluoromethyl)aniline], the half-inhibitory concentration (IC50) in assay [1] came out at 2550 nM; in assay [2], 15.1 nM.
On to `Cc1c(F)c(N)cc(-c2nc3c4c(nc(OCC56C[C@H](F)CN5C[C@@H](F)C6)nc4c2F)N2C[C@H]4CC[C@H](N4)[C@H]2[C@H](C)O3)c1C(F)(F)F` [Compound 139, 5-((5S,5aS,6S,9R)-12-(((2S,6S)-2,6-Difluorotetrahydro-1H-pyrrolizin-7a(5H)-yl)methoxy)-1-fluoro-5-methyl-5a,6,7,8,9,10-hexahydro-5H-4-oxa-3,10a,11,13,14-pentaaza-6,9-methanonaphtho[1,8-ab]heptalen-2-yl)-2-fluoro-3-methyl-4-(trifluoromethyl)aniline], for which the IC50 in assay [1] was determined as 8570 nM; in assay [2] it was 118 nM.
With `Cc1c(F)c(N)cc(-c2nc3c4c(nc(OC[C@]56C[C@H](F)CN5C[C@H](F)C6)nc4c2F)N2C[C@H]4CC[C@H](N4)[C@H]2[C@H](C)O3)c1C(F)(F)F` [Compound 141, 5-((5S,5aS,6S,9R)-12-(((2R,6S,7ar)-2,6-Difluorotetrahydro-1H-pyrrolizin-7a(5H)-yl)methoxy)-1-fluoro-5-methyl-5a,6,7,8,9,10-hexahydro-5H-4-oxa-3,10a,11,13,14-pentaaza-6,9-methanonaphtho[1,8-ab]heptalen-2-yl)-2-fluoro-3-methyl-4-(trifluoromethyl)aniline], the IC50 is 6240 nM in assay [1] and 6.92 nM in assay [2].
Turning to `Cc1c(F)c(N)cc(-c2nc3c4c(nc(OC[C@@]56C[C@H](F)CN5C[C@H](F)C6)nc4c2F)N2C[C@H]4CC[C@H](N4)[C@H]2[C@H](C)O3)c1C(F)(F)F` [Compound 142, 5-((5S,5aS,6S,9R)-12-(((2R,6S,7as)-2,6-Difluorotetrahydro-1H-pyrrolizin-7a(5H)-yl)methoxy)-1-fluoro-5-methyl-5a,6,7,8,9,10-hexahydro-5H-4-oxa-3,10a,11,13,14-pentaaza-6,9-methanonaphtho[1,8-ab]heptalen-2-yl)-2-fluoro-3-methyl-4-(trifluoromethyl)aniline], the concentration for half-maximal inhibition (IC50) worked out at 3560 nM in assay [1] and 5.45 nM in assay [2].
Regarding `Cc1c(F)c(N)cc(-c2nc3c4c(nc(OC[C@H](F)CN5CC6(COC6)C5)nc4c2F)N2C[C@H]4CC[C@H](N4)[C@H]2[C@H](C)O3)c1C(F)(F)F` [Compound 144], the IC50 in assay [1] amounted to 7510 nM; in assay [2], 21.2 nM.
Taken in the same sequence, the figures for `Cc1c(F)c(N)cc(-c2nc3c4c(nc(OC[C@@H](F)CN5CC6(COC6)C5)nc4c2F)N2C[C@H]4CC[C@H](N4)[C@H]2[C@H](C)O3)c1C(F)(F)F` [Compound 145] were 5120 nM and 68.7 nM.

For the origin of these results see US12338256B2, “Aza-tetracyclic oxazepine compounds and uses thereof” (Genentech, Inc., priority 2022, dated 2025).
